In PMC6692898 (Chemical research in toxicology, 2019):
Like-named read-outs stand apart in the source and are kept apart here. Blank lines part the entries; values can stand above or below the molecule they belong to.

Legend:
[1] = 1-Naphthaldehyde decay/depletion in human liver microsomes and Supersomes; assay type: in vitro ADME
[2] = Time-course decay of TBF-A in HLM, control Supersomes and isozyme Supersomes; assay type: in vitro ADME, human
CYP2C19 = CYP2C19 (Homo sapiens, UniProt P33261); test: Steady-state kinetics by recombinant CYP2C19 Supersomes; assay type: in vitro ADME
[3] = cited from earlier work
[4] = substrate: CN(C/C=C/C#CC(C)(C)C)Cc1cccc2ccccc12; test: cells, lysate or membranes named; conditions: CYP2C19, pH 7.4
[5] = 50 μM TBF-A, normalized per mg/protein
[6] = step 2.2a, metabolite 1-naphthyl-methylamine, CYP2C19
[7] = step 2.2b, metabolite 1-naphthaldehyde, CYP2C19

Molecule: O=Cc1cccc2ccccc12 [1-naphthaldehyde]
- effect of microsomes and NADPH on decay or disappearance ([1]; 50 μM 1-naphthaldehyde, active or heat-inactivated human liver microsomes, presence or absence of NADPH): not significantly affected
- depletion in Supersomes compared with human liver microsomes ([1]; 10 and 50 μM 1-naphthaldehyde, NADPH, CYP2C19 and 3A4 Supersomes, after 30 min): more significant decrease

- end-point plateau for CYP3A4 higher than that of HLM ([2]; 50 μM TBF-A decay): ~4 fold
- end-point plateau of CYP2C19 higher than for both HLM and control Supersomes ([2]; 50 μM TBF-A decay): roughly 2 fold
- decay faster in HLM compared to CYP2C19 Supersomes [2, 5]: 13%
- decay faster in HLM compared to CYP3A4 Supersomes [2, 5]: 55%
Molecule: CC(C)(C)C#CC=CC=O [TBF-A, 6,6-dimethyl-2-hepten-4-ynal]

Molecule: CC(C)(C)C#C/C=C/CNCc1cccc2ccccc12 [desmethyl-terbinafine]
- Km higher than the value for terbinafine N-denaphthylation (Pathway 3) (CYP2C19; CYP2C19): about 5 fold
- decrease in N-denaphthylation catalytic efficiency from terbinafine to desmethyl-terbinafine (CYP2C19; CYP2C19): ~15 fold
- higher rate of turnover (Vmax) than for the parent drug (CYP2C19; N-denaphthylation by CYP2C19): about 3 fold
- efficiency of 1-naphthyl methylamine formation by CYP2C19 relative to 3A4 (CYP2C19; Pathway 2.2a): about 3 fold
- higher Vmax for CYP2C19 (CYP2C19; formation of the desmethyl-terbinafine dihydrodiols, loss of the methyl group): approximately 10 fold
- Km (CYP2C19; read-out: Km (affinity), CYP2C19, oxidative nondealkylation reactions): < 100 µM
- Km (CYP2C19; [6]): 220 ± 55 µM
- V/K (CYP2C19; [6]): 3.7
- Vmax (CYP2C19; [6]): 810 ± 92 pmol/min/nmol of protein
- Km (CYP2C19; [7]): 150 ± 58 µM
- V/K (CYP2C19; [7]): 8.7
- Vmax (CYP2C19; [7]): 1300 ± 59 pmol/min/nmol of protein

- Km at 30 min (CYP2C19; human, recombinant CYP2C19 Supersomes, pH 7.4, Km (affinity), CYP2C19, oxidative nondealkylation reactions): < 100 µM
Molecule: CN(C/C=C/C#CC(C)(C)C)Cc1cccc2ccccc12 [terbinafine]
- time remaining at therapeutic levels in the body after therapy ceases ([3]; due to bioaccumulation): up to a month
- plasma levels ([3]; reported): 1000 ng/mL
- protein binding ([3]; reported): > 99%

B1: CYP2C19 (Homo sapiens) (protein)
chain: MDPFVVLVLCLSCLLLLSIWRQSSGRGKLPPGPTPLPVIGNILQIDIKDVSKSLTNLSKIYGPVFTLYFGLERMVVLHGYEVVKEALIDLGEEFSGRGHFPLAERANRGFGIVFSNGKRWKEIRRFSLMTLRNFGMGKRSIEDRVQEEARCLVEELRKTKASPCDPTFILGCAPCNVICSIIFQKRFDYKDQQFLNLMEKLNENIRIVSTPWIQICNNFPTIIDYFPGTHNKLLKNLAFMESDILEKVKEHQESMDINNPRDFIDCFLIKMEKEKQNQQSEFTIENLVITAADLLGAGTETTSTTLRYALLLLLKHPEVTAKVQEEIERVIGRNRSPCMQDRGHMPYTDAVVHEVQRYIDLIPTSLPHAVTCDVKFRNYLIPKGTTILTSLTSVLHDNKEFPNPEMFDPRHFLDEGGNFKKSNYFMPFSAGKRICVGEGLARMELFLFLTFILQNFNLKSLIDPKDLDTTPVVNGFASVPPFYQLCFIPV
- Km ([4]; other: step 1.1, metabolite N-methyl-1-naphthyl-methylamine): 120 ± 22 µM
- Km ([4]; other: step 2.1, metabolite desmethyl-terbinafine): 37 ± 6.7 µM
- Km ([4]; other: step 3.1, metabolite 1-naphthaldehyde): 3.0 ± 0.83 µM
